The values below come from patent publication US9181183B2, “Prostaglandin D synthase inhibitory piperidine compounds” (Taiho Pharmaceutical Co., Ltd., priority 2010, dated 2015).

human H-PGDS, sequence (O60760 whole entry): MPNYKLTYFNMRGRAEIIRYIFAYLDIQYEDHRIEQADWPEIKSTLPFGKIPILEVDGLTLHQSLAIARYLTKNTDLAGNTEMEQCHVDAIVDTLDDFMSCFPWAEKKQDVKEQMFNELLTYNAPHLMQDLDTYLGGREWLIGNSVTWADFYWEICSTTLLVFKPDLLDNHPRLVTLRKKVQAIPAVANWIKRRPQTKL

One assay addresses human H-PGDS (Homo sapiens, UniProt O60760). Put plainly: Hematopoietic prostaglandin D synthase (H-PGDS) inhibiting action, [14C]PGH2 to PGD2 conversion, TLC radioassay. It counts as biochemical. The following applies: compound 0.1 μM; inhibition rate relative to solvent control group; [14C] prostaglandin H2 10 μM, 25° C. How it is done: The test was carried out according to the method of Urade, Y. et al. (J. Biol. Chem., 262, 3820-3825, (1987)). More specifically, a reaction mixture (49 μL) containing 100 mM Tris-HCl (pH 8.0), 1 mM reduced form glutathione, 0.1 mg/mL γ-globulin, human H-PGDS (q.s.), and a compound (0.1 μM) was preincubated at 25° C. for 5 minutes. A DMSO solution (final concentration: 1%) was added to the solvent control group. Subsequently, 1 μL of [^14C] prostaglandin H2 (final concentration: 10 μM) was added to start the reaction. One minute after the start of the reaction, 250 μL of a reaction stopper solution (diethylether/methanol/1M citric acid (30/4/1)) cooled with ice was added to stop the reaction. After the reaction was stopped, 50 μL of the upper layer portion (organic solvent phase) was applied to a TLC plate and developed at −20° C. for 45 minutes (developing solvent: diethylether/methanol/acetic acid (90/2/1)). After the TLC plate was dried and exposed to an imaging plate for 1 to 24 hours, the radioactivity corresponding to prostaglandin D2 (PGD2) was analyzed using an image analyzer (produced by Fujifilm Corporation). The area (%) occupied by the PGD2 band per lane and the inhibition rate (%) of each Example compound at 0.1 μM relative to the control group in each experiment were calculated.
Consider “N-(5-(morpholin-1-yl-carbonyl)thiazol-2-yl)-4-(pyridin-2-ylmethylene)piperidine-1-carboxamide [Example 13]”, for which the “H-PGDS inh. (% at 0.1 μM)” value was found to be 48.3%. Regarding “N-(6-(1H-1,2,3-triazol-1-ylmethyl)acetamide)benzo[d]thiazol-2-yl)-4-(pyridin-2-ylmethylene)-piperidine-1-carboxamide [Example 12]”, the “H-PGDS inh. (% at 0.1 μM)” value is listed as 52.5%. As for “N-(6-(4-morpholin-1-yl-carbonylphenyl)-benzo[d]thiazol-2-yl)-4-(pyridin-2-ylmethylene)-piperidine-1-carboxamide [Example 2]”, the “H-PGDS inh. (% at 0.1 μM)” value is 64.4%.

The assay is the same for the next values; noted with them: compound 0.1 μM; inhibition rate relative to solvent control group; [14C] prostaglandin H2 10 μM, 25° C.; read-out: H-PGDS inh. (% at 0.1 μM).
Regarding `CC(C)C(=O)N1CCC(NC(=O)N2CCC(=Cc3cc(F)ccc3F)CC2)CC1` [Example 48, 4-(2,5-difluorobenzylidene)-N-(1-isobutyrylpiperidin-4-yl)piperidine-1-carboxamide], the inhibition at 0.1 µM came out at 65.7%. Still for that read-out and setting: for `O=C(Nc1ccc(Nc2ccccc2)cc1)N1CCC(=Cc2cc(F)ccc2F)CC1` [Example 72, 4-(2,5-difluorobenzylidene)-N-(4-(phenylamino)phenyl)piperidine-1-carboxamide] the value was 68.7%; for `CS(=O)(=O)NC(=O)c1ccc(-c2cnc(NC(=O)N3CCC(=Cc4ccccn4)CC3)s2)cc1` [Example 23, N-(5-(4-(methylsulfonylcarbamoyl)phenyl)thiazol-2-yl)-4-(pyridin-2-ylmethylene)piperidine-1-carboxamide], 65.9%. Same read-out and setting: with `O=C(Nc1ccc(Nc2ccccc2)cc1)N1CCC(=Cc2ccccn2)CC1` [Example 71, N-(4-(phenylamino)phenyl)-4-(pyridin-2-ylmethylene)piperidine-1-carboxamide] the figure was 62.9%; with `O=C(NC1CCN(C(=O)C2CC2)CC1)N1CCC(=Cc2cc(F)ccc2F)CC1` [Example 45, N-(1-(cyclopropanecarbonyl)piperidin-4-yl)-4-(2,5-difluorobenzylidene)piperidine-1-carboxamide], 48.8%; with `O=C(O)c1ccc(-c2ncc(NC(=O)N3CCC(=Cc4ccccn4)CC3)cn2)cc1` [Example 33, 4-(5-(4-(pyridin-2-ylmethylene)piperidine-1-carboxamido)pyrimidin-2-yl)benzoic acid], 50%. Still for that read-out and setting: for `Cc1cccnc1C(=O)N1CCC(NC(=O)N2CCC(=Cc3cc(F)ccc3F)CC2)CC1` [Example 62, 4-(2,5-difluorobenzylidene)-N-(1-(3-methylpicolinoyl)piperidin-4-yl)piperidine-1-carboxamide] the value was 54.2%; for `O=C(NS(=O)(=O)c1ccccc1)c1ccc(-c2cnc(NC(=O)N3CCC(=Cc4ccccn4)CC3)s2)cc1` [Example 24, N-(5-(4-(phenylsulfonylcarbamoyl)phenyl)thiazol-2-yl)-4-(pyridin-2-ylmethylene)piperidine-1-carboxamide], 68.2%.

As for `O=C(NC1CCN(C(=O)c2ccccc2F)CC1)N1CCC(=Cc2cc(F)ccc2F)CC1` [Example 60, 4-(2,5-difluorobenzylidene)-N-(1-(2-fluorobenzoyl)piperidin-4-yl)piperidine-1-carboxamide], the inhibition at 0.1 µM was determined as 67.1%. Take `O=C(Nc1ncc(Cn2cncn2)s1)N1CCC(=Cc2cc(F)ccc2F)CC1` [Example 81, N-(5-((1H-1,2,4-triazol-1-yl)methyl)thiazol-2-yl)-4-(2,5-difluorobenzylidene)piperidine-1-carboxamide]: the inhibition at 0.1 µM is 72.8%.

`O=C(NC1CCN(C(=O)c2cccc(F)n2)CC1)N1CCC(=Cc2cc(F)ccc2F)CC1` [Example 66, 4-(2,5-difluorobenzylidene)-N-(1-(6-fluoropicolinoyl)piperidin-4-yl)piperidine-1-carboxamide]: the inhibition at 0.1 µM was found to be 68.6%. Take `O=C(Nc1ccccc1)Nc1ccc(NC(=O)N2CCC(=Cc3cc(F)ccc3F)CC2)cc1` [Example 73, 4-(2,5-difluorobenzylidene)-N-(4-(3-phenylureido)phenyl)piperidine-1-carboxamide]: the inhibition at 0.1 µM was found to be 71%. On the same count and under the same terms, for `O=C(Nc1ccccc1)N1CCC(NC(=O)N2CCC(=Cc3cc(F)ccc3F)CC2)CC1` [Example 56, 4-(2,5-difluorobenzylidene)-N-(1-(phenylcarbamoyl)piperidin-4-yl)piperidine-1-carboxamide] the value was 59.3%; for `O=C(Nc1nc2ccc(-c3ccncc3)cc2s1)N1CCC(=Cc2ccccn2)CC1` [Example 5, N-(6-(pyridin-4-yl)-benzo[d]thiazol-2-yl)-4-(pyridin-2-ylmethylene)-piperidine-1-carboxamide], 77.8%; for `O=C(Nc1nc2ccc(-c3cncnc3)cc2s1)N1CCC(=Cc2ccccn2)CC1` [Example 6, N-(6-(pyrimidin-5-yl)-benzo[d]thiazol-2-yl)-4-(pyridin-2-ylmethylene)-piperidine-1-carboxamide], 78.8%. Same read-out and setting: with `O=C(NC1CCN(C(=O)C(F)(F)F)CC1)N1CCC(=Cc2cc(F)ccc2F)CC1` [Example 38, 4-(2,5-difluorobenzylidene)-N-(1-(2,2,2-trifluoroacetyl)piperidin-4-yl)piperidine-1-carboxamide] the figure was 82.9%. In the case of `COc1ccc(-c2ccc3nc(NC(=O)N4CCC(=Cc5ccccn5)CC4)sc3c2)cn1` [Example 7, N-(6-(2-methoxypyridin-5-yl)-benzo[d]thiazol-2-yl)-4-(pyridin-2-ylmethylene)-piperidine-1-carboxamide], the inhibition at 0.1 µM came to 74.2%. Still for that read-out and setting: for `O=C(Nc1ccc(NC(=O)N2CCC(=Cc3cc(F)ccc3F)CC2)cn1)c1ccccn1` [Example 79, N-(5-(4-(2,5-difluorobenzylidene)piperidine-1-carboxamido)pyridin-2-yl)picolinamide] the value was 56.8%. The same measure, in the same setting: for `O=C(Nc1nc2ccc(Br)cc2s1)N1CCC(=Cc2ccccn2)CC1` [Example 1, N-(6-bromobenzo[d]thiazol-2-yl)-4-(pyridin-2-ylmethylene)-piperidine-1-carboxamide] the value was 70.9%.

Turning to `O=C(Nc1nccs1)N1CCC(NC(=O)N2CCC(=Cc3cc(F)ccc3F)CC2)CC1` [Example 65, 4-(2,5-difluorobenzylidene)-N-(1-(thiazol-2-ylcarbamoyl)piperidin-4-yl)piperidine-1-carboxamide], the inhibition at 0.1 µM is 55.4%. The same measure, in the same setting: for `O=C(Nc1ccccn1)N1CCC(NC(=O)N2CCC(=Cc3cc(F)ccc3F)CC2)CC1` [Example 64, 4-(2,5-difluorobenzylidene)-N-(1-(pyridin-2-ylcarbamoyl)piperidin-4-yl)piperidine-1-carboxamide] the value was 51%; for `O=C(NC1CCN(C(=O)C(F)F)CC1)N1CCC(=Cc2cc(F)ccc2F)CC1` [Example 43, N-(1-(2,2-difluoroacetyl)piperidin-4-yl)-4-(2,5-difluorobenzylidene)piperidine-1-carboxamide], 68%. Still for that read-out and setting: with `O=C(Nc1ncc(CN2CCOCC2)s1)N1CCC(=Cc2cc(F)ccc2F)CC1` [Example 84, 4-(2,5-difluorobenzylidene)-N-(5-(morpholinomethyl)thiazol-2-yl)piperidine-1-carboxamide] the figure was 78.5%.
